Drawing on US11358957B2, “Microbiocidal oxadiazole derivatives” (SYNGENTA PARTICIPATIONS AG, priority 2017, dated 2022), this text covers pest or weed control and inhibition of growth for 23 molecules.

Some results are limits rather than exact numbers.

Assay [1] deals with Puccinia recondita f. Sp. Tritici. Kind of assay: Fungicidal activity against Puccinia recondita f. sp. tritici / wheat / leaf disc preventative (brown rust). The class given is in vivo. As to conditions: foliar, 200 ppm in the applied formulation, wheat leaf segments cv. Kanzler, preventative (inoculated 1 day after application), compared to untreated, read-out: disease control. The protocol:
Leaf disks or leaf segments of various plant species are cut from plants grown in a greenhouse. The cut leaf disks or segments are placed in multiwell plates (24-well format) onto water agar. The leaf disks are sprayed with a test solution before (preventative) or after (curative) inoculation. Compounds to be tested are prepared as DMSO solutions (max. 10 mg/mL) which are diluted to the appropriate concentration with 0.025% Tween20 just before spraying. The inoculated leaf disks or segments are incubated under defined conditions (temperature, relative humidity, light, etc.) according to the respective test system. A single evaluation of disease level is carried out 3 to 14 days after inoculation, depending on the pathosystem. Percent disease control relative to the untreated check leaf disks or segments is then calculated. Wheat leaf segments cv. Kanzler were placed on agar in multiwell plates (24-well format) and sprayed with the formulated test compound diluted in water. The leaf disks were inoculated with a spore suspension of the fungus 1 day after application. The inoculated leaf segments were incubated at 19° C. and 75% relative humidity (rh) under a light regime of 12 hours light/12 hours darkness in a climate cabinet and the activity of a compound was assessed as percent disease control compared to untreated when an appropriate level of disease damage appears in untreated check leaf segments (7 to 9 days after application). The following compounds at 200 ppm in the applied formulation give at least 80% disease control in this test when compared to untreated control leaf disks under the same conditions, which show extensive disease development.

In assay [2] the test system is Glomerella lagenarium (Colletotrichum lagenarium). The assay can be described thus: Fungicidal activity against Glomerella lagenarium (Colletotrichum lagenarium) liquid culture / cucumber / preventative (anthracnose). It counts as cell-based. The conditions noted are these: Colletotrichum orbiculare; 20 ppm in the applied formulation; liquid culture (PDB), inhibition of growth measured photometrically 3 to 4 days after application; compared to untreated; read-out: disease control. The protocol:
Mycelia fragments or conidia suspensions of a fungus prepared either freshly from liquid cultures of the fungus or from cryogenic storage, are directly mixed into nutrient broth. DMSO solutions of the test compound (max. 10 mg/mL) are diluted with 0.025% Tween20 by a factor of 50 and 10 μL of this solution is pipetted into a microtiter plate (96-well format). The nutrient broth containing the fungal spores/mycelia fragments is then added to give an end concentration of the tested compound. The test plates are incubated in the dark at 24° C. and 96% relative humidity. The inhibition of fungal growth is determined photometrically after 2 to 7 days, depending on the pathosystem, and percent antifungal activity relative to the untreated check is calculated. Conidia of the fungus from cryogenic storage are directly mixed into nutrient broth (PDB—potato dextrose broth). After placing a (DMSO) solution of test compound into a microtiter plate (96-well format), the nutrient broth containing the fungal spores is added. The test plates are incubated at 24° C. and the inhibition of growth is measured photometrically 3 to 4 days after application. The following compounds at 20 ppm in the applied formulation give at least 80% disease control in this test when compared to untreated control under the same conditions, which show extensive disease development.

Consider `O=C(NCc1ccccc1)c1ccnn1Cc1ccc(-c2noc(C(F)(F)F)n2)s1` [Compound 1.163, N-benzyl-2-[[5-[5-(trifluoromethyl)-1,2,4-oxadiazol-3-yl]-2-thienyl]methyl]pyrazole-3-carboxamide], for which the pest or weed control at 200 ppm in assay [1] was at least 80%. The inhibition of growth at 20 ppm in assay [2] is at least 80%.
As for `CC1(C)CC(=O)N(Cc2ccc(-c3noc(C(F)(F)F)n3)s2)O1` [Compound 1.3, 5,5-dimethyl-2-[[5-[5-(trifluoromethyl)-1,2,4-oxadiazol-3-yl]-2-thienyl]methyl] isoxazolidin-3-one], the pest or weed control at 200 ppm in assay [1] was at least 80%. Also, the inhibition of growth at 20 ppm in assay [2] was at least 80%.
As for `O=S1(=O)CCCN1Cc1cc(-c2noc(C(F)(F)F)n2)cs1` [Compound 1.29, 2-[[4-[5-(trifluoromethyl)-1,2,4-oxadiazol-3-yl]-2-thienyl]methyl]-1,2-thiazolidine 1,1-dioxide], the inhibition of growth at 20 ppm in assay [2] was at least 80%.
For the molecule `FC(F)(F)c1nc(-c2ccc(CN3CCC3)s2)no1` [Compound 1.20, 3-[5-(azetidin-1-ylmethyl)-2-thienyl]-5-(trifluoromethyl)-1,2,4-oxadiazole], the inhibition of growth at 20 ppm in assay [2] is at least 80%.
Consider `O=C(Nc1ccccc1)c1ccnn1Cc1ccc(-c2noc(C(F)(F)F)n2)s1` [Compound 1.162, N-phenyl-2-[[5-[5-(trifluoromethyl)-1,2,4-oxadiazol-3-yl]-2-thienyl]methyl]pyrazole-3-carboxamide], for which the pest or weed control at 200 ppm in assay [1] was at least 80%. For the same molecule, in assay [2], the inhibition of growth at 20 ppm was at least 80%.
For the molecule `O=C1CCCCN1Cc1cc(-c2noc(C(F)(F)F)n2)cs1` [Compound 1.31, 1-[[4-[5-(trifluoromethyl)-1,2,4-oxadiazol-3-yl]-2-thienyl]methyl]piperidin-2-one], in assay [2], the inhibition of growth at 20 ppm was at least 80%.
For the molecule `CC(C)NC(=O)c1ccnn1Cc1ccc(-c2noc(C(F)(F)F)n2)s1` [Compound 1.157, N-isopropyl-2-[[5-[5-(trifluoromethyl)-1,2,4-oxadiazol-3-yl]-2-thienyl]methyl]pyrazole-3-carboxamide], the pest or weed control at 200 ppm in assay [1] is at least 80%. For the same molecule, in assay [2], the inhibition of growth at 20 ppm was at least 80%.
Regarding `FC(F)(F)c1nc(-c2ccc(Cn3cccn3)s2)no1` [Compound 1.7, 3-[5-(pyrazol-1-ylmethyl)-2-thienyl]-5-(trifluoromethyl)-1,2,4-oxadiazole], the pest or weed control at 200 ppm in assay [1] was at least 80%. For the same molecule, the inhibition of growth at 20 ppm in assay [2] is at least 80%.
For the molecule `CCC(C)NC(=O)c1ccnn1Cc1ccc(-c2noc(C(F)(F)F)n2)s1` (stereo not shown) [Compound 1.155, N-sec-butyl-2-[[5-[5-(trifluoromethyl)-1,2,4-oxadiazol-3-yl]-2-thienyl]methyl]pyrazole-3-carboxamide], in assay [1], the pest or weed control at 200 ppm was at least 80%. For the same molecule, the inhibition of growth at 20 ppm in assay [2] is at least 80%.
`Cc1cccc(=O)n1Cc1cc(-c2noc(C(F)(F)F)n2)cs1` [Compound 1.27, 6-methyl-1-[[4-[5-(trifluoromethyl)-1,2,4-oxadiazol-3-yl]-2-thienyl]methyl]pyridin-2-one]: in assay [2], the inhibition of growth at 20 ppm is at least 80%.
Consider `CC(C)(C)CNC(=O)c1ccnn1Cc1ccc(-c2noc(C(F)(F)F)n2)s1` [Compound 1.156, N-(2,2-dimethylpropyl)-2-[[5-[5-(trifluoromethyl)-1,2,4-oxadiazol-3-yl]-2-thienyl]methyl]pyrazole-3-carboxamide], for which, in assay [1], the pest or weed control at 200 ppm was at least 80%. For the same molecule, in assay [2], the inhibition of growth at 20 ppm was at least 80%.
As for `O=C(Nc1ccccc1)c1cnn(Cc2ccc(-c3noc(C(F)(F)F)n3)s2)c1` [Compound 1.115, N-phenyl-1-[[5-[5-(trifluoromethyl)-1,2,4-oxadiazol-3-yl]-2-thienyl]methyl]pyrazole-4-carboxamide], the pest or weed control at 200 ppm in assay [1] is at least 80%. Also, the inhibition of growth at 20 ppm in assay [2] is at least 80%.
Consider `CC(C)(C)NC(=O)c1ccnn1Cc1ccc(-c2noc(C(F)(F)F)n2)s1` [Compound 1.167, N-tert-butyl-2-[[5-[5-(trifluoromethyl)-1,2,4-oxadiazol-3-yl]-2-thienyl]methyl]pyrazole-3-carboxamide], for which the pest or weed control at 200 ppm in assay [1] is at least 80%. Moreover, the inhibition of growth at 20 ppm in assay [2] is at least 80%.
As for `FC(F)(F)c1nc(-c2ccc(CN3CCOCC3)s2)no1` [Compound 1.18, 4-[[5-[5-(trifluoromethyl)-1,2,4-oxadiazol-3-yl]-2-thienyl]methyl]morpholine], the pest or weed control at 200 ppm in assay [1] was at least 80%. Besides, the inhibition of growth at 20 ppm in assay [2] was at least 80%.
Consider `Cc1cnn(Cc2ccc(-c3noc(C(F)(F)F)n3)s2)c1` [Compound 1.5, 3-[5-[(4-methylpyrazol-1-yl)methyl]-2-thienyl]-5-(trifluoromethyl)-1,2,4-oxadiazole], for which the pest or weed control at 200 ppm in assay [1] is at least 80%. In assay [2], the inhibition of growth at 20 ppm was at least 80%.
For `CC(c1ccc(-c2noc(C(F)(F)F)n2)s1)n1cc(C(=O)NC2CCCCC2)cn1` (stereo not shown) [Compound 1.71, N-cyclohexyl-1-[1-[5-[5-(trifluoromethyl)-1,2,4-oxadiazol-3-yl]-2-thienyl]ethyl]pyrazole-4-carboxamide], in assay [1], the pest or weed control at 200 ppm is at least 80%. Besides, the inhibition of growth at 20 ppm in assay [2] was at least 80%.
`CC1(C)CC(=O)N(Cc2cc(-c3noc(C(F)(F)F)n3)cs2)O1` [Compound 1.28, 5,5-dimethyl-2-[[4-[5-(trifluoromethyl)-1,2,4-oxadiazol-3-yl]-2-thienyl]methyl] isoxazolidin-3-one]: the inhibition of growth at 20 ppm in assay [2] was at least 80%.
For the molecule `FC(F)(F)c1nc(-c2ccc(Cn3nnnc3-c3ccccc3Br)s2)no1` [Compound 1.10, 3-[5-[[5-(2-bromophenyl)tetrazol-1-yl]methyl]-2-thienyl]-5-(trifluoromethyl)-1,2,4-oxadiazole], the pest or weed control at 200 ppm in assay [1] was at least 80%. Besides, the inhibition of growth at 20 ppm in assay [2] was at least 80%.
As for `O=C(NC1CCCC1)c1ccnn1Cc1ccc(-c2noc(C(F)(F)F)n2)s1` [Compound 1.165, N-cyclopentyl-2-[[5-[5-(trifluoromethyl)-1,2,4-oxadiazol-3-yl]-2-thienyl]methyl]pyrazole-3-carboxamide], the pest or weed control at 200 ppm in assay [1] is at least 80%. In addition, the inhibition of growth at 20 ppm in assay [2] is at least 80%.
For the molecule `O=C(NC1CCCCC1)c1ncn(Cc2ccc(-c3noc(C(F)(F)F)n3)s2)n1` [Compound 1.149, N-cyclohexyl-1-[[5-[5-(trifluoromethyl)-1,2,4-oxadiazol-3-yl]-2-thienyl]methyl]-1,2,4-triazole-3-carboxamide], the pest or weed control at 200 ppm in assay [1] was at least 80%. For the same molecule, the inhibition of growth at 20 ppm in assay [2] is at least 80%.
Turning to `Fc1cnn(Cc2ccc(-c3noc(C(F)(F)F)n3)s2)c1` [Compound 1.12, 3-[5-[(4-fluoropyrazol-1-yl)methyl]-2-thienyl]-5-(trifluoromethyl)-1,2,4-oxadiazole], the pest or weed control at 200 ppm in assay [1] is at least 80%. Further, the inhibition of growth at 20 ppm in assay [2] was at least 80%.
Take `O=C(NC1CCCCC1)c1ccnn1Cc1ccc(-c2noc(C(F)(F)F)n2)s1` [Compound 1.159, N-cyclohexyl-2-[[5-[5-(trifluoromethyl)-1,2,4-oxadiazol-3-yl]-2-thienyl]methyl]pyrazole-3-carboxamide]: the pest or weed control at 200 ppm in assay [1] was at least 80%. Also, in assay [2], the inhibition of growth at 20 ppm was at least 80%.
For the molecule `FC(F)(F)c1nc(-c2ccc(CN3CCCC3)s2)no1` [Compound 1.15, 3-[5-(pyrrolidin-1-ylmethyl)-2-thienyl]-5-(trifluoromethyl)-1,2,4-oxadiazole], the inhibition of growth at 20 ppm in assay [2] was at least 80%.
